Assays:
CRBN-DDB1 = CRBN-DDB1 (Homo sapiens (Human), UniProt Q96SW2); assay: CRBN HTRF assay (Cy5-Thalidomide probe displacement); format: binding; conditions: CRBN-DDB1 2.5 nM, Cy5-Thalidomide 100 nM, 30 min; Ki from geometric mean IC50 by Cheng-Prusoff
Procedure, shortened: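 HTRF displacement of Cy5-thalidomide probe (100 nM) from His-CRBN-DDB1 (2.5 nM) with anti-His terbium cryptate, in HEPES/NaCl/TCEP/EDTA/Tween20 buffer. 10-point 1:3 compound series, 30 min at ambient temperature; signal normalised to DMSO and lenalidomide controls, IC50 fitted and Ki derived by Cheng-Prusoff.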

CDK2 = CDK2 (Homo sapiens (Human), UniProt P24941); assay: CDK2 NanoBiT assay (HiBiT-tagged CDK2 degradation); format: cell-based; conditions: HEK293, HEK293 clonal line, C-terminal HiBiT tag on CDK2, LgBiT; 24 hours
Procedure, shortened: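 HEK293 line with CRISPR knock-in C-terminal HiBiT-tagged CDK2 and stable LgBiT, preincubated 16 h with live-cell substrate, then compound-treated 24 h at 37° C, 5% CO2 (30 μM stock). Luminescence normalized to plate negative and positive controls; EC50 from 3-parameter logistic fit, Hill slope 1.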

Chain of CRBN-DDB1 (Q96SW2 whole entry): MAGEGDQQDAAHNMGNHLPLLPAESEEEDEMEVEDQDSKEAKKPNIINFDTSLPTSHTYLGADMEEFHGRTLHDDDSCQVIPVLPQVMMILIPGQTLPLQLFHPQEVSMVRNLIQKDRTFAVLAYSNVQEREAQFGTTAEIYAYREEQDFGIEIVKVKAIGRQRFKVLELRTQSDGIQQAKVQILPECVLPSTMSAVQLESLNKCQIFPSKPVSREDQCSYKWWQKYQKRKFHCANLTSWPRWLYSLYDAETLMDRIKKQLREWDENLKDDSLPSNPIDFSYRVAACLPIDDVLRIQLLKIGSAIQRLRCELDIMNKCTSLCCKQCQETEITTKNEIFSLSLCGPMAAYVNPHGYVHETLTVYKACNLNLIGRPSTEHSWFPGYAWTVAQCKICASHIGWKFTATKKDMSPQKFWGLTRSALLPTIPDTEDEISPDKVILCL
Chain of CRBN-DDB1 (Q16531 whole entry partner): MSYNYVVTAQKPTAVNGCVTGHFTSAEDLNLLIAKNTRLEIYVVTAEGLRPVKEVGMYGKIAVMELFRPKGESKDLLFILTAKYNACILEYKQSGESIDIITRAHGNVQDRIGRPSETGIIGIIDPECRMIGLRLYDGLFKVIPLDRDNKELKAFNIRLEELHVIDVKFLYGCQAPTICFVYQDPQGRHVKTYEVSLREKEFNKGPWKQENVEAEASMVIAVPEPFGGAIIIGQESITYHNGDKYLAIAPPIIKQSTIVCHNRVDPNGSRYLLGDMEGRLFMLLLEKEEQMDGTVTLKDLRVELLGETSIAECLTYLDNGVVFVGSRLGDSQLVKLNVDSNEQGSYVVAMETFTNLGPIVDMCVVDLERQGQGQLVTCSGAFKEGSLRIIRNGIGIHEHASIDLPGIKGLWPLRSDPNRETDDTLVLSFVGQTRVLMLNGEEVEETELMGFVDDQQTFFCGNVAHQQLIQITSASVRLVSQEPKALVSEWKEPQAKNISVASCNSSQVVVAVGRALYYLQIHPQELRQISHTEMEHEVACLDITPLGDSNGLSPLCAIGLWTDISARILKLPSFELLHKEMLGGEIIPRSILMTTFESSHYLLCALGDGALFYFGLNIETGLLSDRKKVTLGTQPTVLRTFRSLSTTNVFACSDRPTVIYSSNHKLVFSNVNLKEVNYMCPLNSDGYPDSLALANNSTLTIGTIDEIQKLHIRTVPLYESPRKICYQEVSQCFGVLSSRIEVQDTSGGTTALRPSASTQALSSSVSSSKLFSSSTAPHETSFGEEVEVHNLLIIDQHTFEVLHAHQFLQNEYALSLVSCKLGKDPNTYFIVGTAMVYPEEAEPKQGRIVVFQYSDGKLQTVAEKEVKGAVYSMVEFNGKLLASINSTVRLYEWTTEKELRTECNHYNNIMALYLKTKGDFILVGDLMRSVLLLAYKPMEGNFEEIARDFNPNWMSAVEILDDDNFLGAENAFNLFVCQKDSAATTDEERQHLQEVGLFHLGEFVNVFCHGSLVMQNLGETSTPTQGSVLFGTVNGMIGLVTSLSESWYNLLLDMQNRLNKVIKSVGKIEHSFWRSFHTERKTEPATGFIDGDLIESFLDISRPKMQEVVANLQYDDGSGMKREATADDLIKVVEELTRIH

| Ki (CRBN-DDB1) [µM] | Dmax (CDK2) [%] | Compound |
| --- | --- | --- |
| ≤ 0.1 | 10 to 50 | O=C1CCC(c2c(F)cc(N3CC(NC(=O)OC45CC(C(=O)N6CCC6)(C4)C5)C3)cc2F)C(=O)N1 (stereo not drawn) [Compound 126, 3-(azetidine-1-carbonyl)bicyclo[1.1.1]pentan-1-yl (1-(4-(2,6-dioxopiperidin-3-yl)-3,5-difluorophenyl)azetidin-3-yl)carbamate] |
| ≤ 0.1 | 10 to 50 | O=C1CCC(c2c(F)cc(N3CC(Nc4nnc(CCC5CC5)o4)C3)cc2F)C(=O)N1 (stereo not drawn) [Compound 127, 3-(4-(3-((5-(2-cyclopropylethyl)-1,3,4-oxadiazol-2-yl)amino)azetidin-1-yl)-2,6-difluorophenyl)piperidine-2,6-dione] |
| ≤ 0.1 | 50 to 80 | O=C1CCC(c2c(F)cc(N3CC(Nc4nnc(-c5cccnc5)o4)C3)cc2F)C(=O)N1 (stereo not drawn) [Compound 128, 3-(2,6-difluoro-4-(3-((5-(pyridin-3-yl)-1,3,4-oxadiazol-2-yl)amino)azetidin-1-yl)phenyl)piperidine-2,6-dione] |
| ≤ 0.1 | 50 to 80 | CN(C(=O)C12CC(OC(=O)NC3CN(c4cc(F)c(C5CCC(=O)NC5=O)c(F)c4)C3)(C1)C2)c1ccc(Cl)cc1 (stereo not drawn) [Compound 129, 3-((4-chlorophenyl)(methyl)carbamoyl)bicyclo[1.1.1]pentan-1-yl (1-(4-(2,6-dioxopiperidin-3-yl)-3,5-difluorophenyl)azetidin-3-yl)carbamate] |
| ≤ 0.1 | 50 to 80 | COc1cccc(N(C)C(=O)C23CC(OC(=O)NC4CN(c5cc(F)c(C6CCC(=O)NC6=O)c(F)c5)C4)(C2)C3)c1 (stereo not drawn) [Compound 130, 3-((3-methoxyphenyl)(methyl)carbamoyl)bicyclo[1.1.1]pentan-1-yl (1-(4-(2,6-dioxopiperidin-3-yl)-3,5-difluorophenyl)azetidin-3-yl)carbamate] |
| ≤ 0.1 | 50 to 80 | CN(C(=O)C12CC(OC(=O)NC3CN(c4cc(F)c(C5CCC(=O)NC5=O)c(F)c4)C3)(C1)C2)c1cccc(Cl)c1 (stereo not drawn) [Compound 131, 3-((3-chlorophenyl)(methyl)carbamoyl)bicyclo[1.1.1]pentan-1-yl (1-(4-(2,6-dioxopiperidin-3-yl)-3,5-difluorophenyl)azetidin-3-yl)carbamate] |
| ≤ 0.1 | 50 to 80 | CN(C(=O)C12CC(OC(=O)NC3CN(c4cc(F)c(C5CCC(=O)NC5=O)c(F)c4)C3)(C1)C2)c1ccc(F)cc1 (stereo not drawn) [Compound 132, 3-((4-fluorophenyl)(methyl)carbamoyl)bicyclo[1.1.1]pentan-1-yl (1-(4-(2,6-dioxopiperidin-3-yl)-3,5-difluorophenyl)azetidin-3-yl)carbamate] |
| ≤ 0.1 | 50 to 80 | Cc1ccc(N(C)C(=O)C23CC(OC(=O)NC4CN(c5cc(F)c(C6CCC(=O)NC6=O)c(F)c5)C4)(C2)C3)cc1 (stereo not drawn) [Compound 133, 3-(methyl (p-tolyl)carbamoyl)bicyclo[1.1.1]pentan-1-yl (1-(4-(2,6-dioxopiperidin-3-yl)-3,5-difluorophenyl)azetidin-3-yl)carbamate] |
| ≤ 0.1 | 50 to 80 | Cc1cccc(N(C)C(=O)C23CC(OC(=O)NC4CN(c5cc(F)c(C6CCC(=O)NC6=O)c(F)c5)C4)(C2)C3)c1 (stereo not drawn) [Compound 134, 3-(methyl(m-tolyl)carbamoyl)bicyclo[1.1.1]pentan-1-yl (1-(4-(2,6-dioxopiperidin-3-yl)-3,5-difluorophenyl)azetidin-3-yl)carbamate] |
| 0.1 to 1 | 50 to 80 | Cc1ccccc1N(C)C(=O)C12CC(OC(=O)NC3CN(c4cc(F)c(C5CCC(=O)NC5=O)c(F)c4)C3)(C1)C2 (stereo not drawn) [Compound 135, 3-(methyl(o-tolyl)carbamoyl)bicyclo[1.1.1]pentan-1-yl (1-(4-(2,6-dioxopiperidin-3-yl)-3,5-difluorophenyl)azetidin-3-yl)carbamate] |
| ≤ 0.1 | 50 to 80 | COc1c(N2CC(C)(Nc3nnc(-c4ccc(OC(F)(F)F)cc4)o3)C2)ccc(C2CCC(=O)NC2=O)c1F (stereo not drawn) [Compound 136, 3-(2-fluoro-3-methoxy-4-(3-methyl-3-((5-(4-(trifluoromethoxy)phenyl)-1,3,4-oxadiazol-2-yl)amino)azetidin-1-yl)phenyl)piperidine-2,6-dione] |
| ≤ 0.1 | 50 to 80 | CN(C(=O)N1CC(OC(=O)NC2CN(c3cc(F)c(C4CCC(=O)NC4=O)c(F)c3)C2)C1)c1ccc(Cl)cc1 (stereo not drawn) [Compound 138, 1-((4-chlorophenyl)(methyl)carbamoyl)azetidin-3-yl (1-(4-(2,6-dioxopiperidin-3-yl)-3,5-difluorophenyl)azetidin-3-yl)carbamate] |
| 0.1 to 1 | 50 to 80 | COC12CC(c3nnc(N[C@H]4CN(c5cc(F)c(C6CCC(=O)NC6=O)c(F)c5)[C@@H]4C)o3)(C1)C2 (stereo partly drawn) [Compound 139, 3-(2,6-difluoro-4-((2R,3S)-3-((5-(3-methoxybicyclo[1.1.1]pentan-1-yl)-1,3,4-oxadiazol-2-yl)amino)-2-methylazetidin-1-yl)phenyl)piperidine-2,6-dione] |
| 0.1 to 1 | 50 to 80 | C[C@@H]1[C@@H](Nc2nnc(C34CC(C(F)(F)F)(C3)C4)o2)CN1c1cc(F)c(C2CCC(=O)NC2=O)c(F)c1 (stereo partly drawn) [Compound 140, 3-(2,6-difluoro-4-((2R,3S)-2-methyl-3-((5-(3-(trifluoromethyl)bicyclo[1.1.1]pentan-1-yl)-1,3,4-oxadiazol-2-yl)amino)azetidin-1-yl)phenyl)piperidine-2,6-dione] |
| 0.1 to 1 | 50 to 80 | C[C@@H]1[C@@H](Nc2nnc(-c3ccc(C(F)(F)F)cc3)o2)CN1c1cc(F)c(C2CCC(=O)NC2=O)c(F)c1 (stereo partly drawn) [Compound 141, 3-(2,6-difluoro-4-((2R,3S)-2-methyl-3-((5-(4-(trifluoromethyl)phenyl)-1,3,4-oxadiazol-2-yl)amino)azetidin-1-yl)phenyl)piperidine-2,6-dione] |
| ≤ 0.1 | 50 to 80 | C[C@@H]1[C@@H](Nc2nnc(C3CC4(CCC4)C3)o2)CN1c1cc(F)c(C2CCC(=O)NC2=O)c(F)c1 (stereo partly drawn) [Compound 142, 3-(2,6-difluoro-4-((2R,3S)-2-methyl-3-((5-(spiro[3.3]heptan-2-yl)-1,3,4-oxadiazol-2-yl)amino)azetidin-1-yl)phenyl)piperidine-2,6-dione] |
| 0.1 to 1 | 50 to 80 | Cc1ccc(-c2nnc(N[C@H]3CN(c4cc(F)c(C5CCC(=O)NC5=O)c(F)c4)[C@@H]3C)o2)cc1 (stereo partly drawn) [Compound 143, 3-(2,6-difluoro-4-((2R,3S)-2-methyl-3-((5-(p-tolyl)-1,3,4-oxadiazol-2-yl)amino)azetidin-1-yl)phenyl)piperidine-2,6-dione] |
| ≤ 0.1 | 50 to 80 | C[C@@H]1[C@@H](Nc2nnc(-c3ccc(OC(F)(F)F)cc3)o2)CN1c1cc(F)c(C2CCC(=O)NC2=O)c(F)c1 (stereo partly drawn) [Compound 144, 3-(2,6-difluoro-4-((2R,3S)-2-methyl-3-((5-(4-(trifluoromethoxy)phenyl)-1,3,4-oxadiazol-2-yl)amino)azetidin-1-yl)phenyl)piperidine-2,6-dione] |

Source: patent publication US20250263395A1, “COMPOUNDS THAT MEDIATE PROTEIN DEGRADATION AND METHODS OF USE THEREOF” (Monte Rosa Therapeutics AG, priority 2022, published 2025)
